US20030191323A1, “Hypoglycemic agent” (Ajinomoto Co., Inc., priority 2000, published 2003)

system: Rat skeletal muscle cell strain L6 cells; test: Effect of accelerating the glucose uptake in cultured skeletal muscle cells ([3H]-2-deoxyglucose uptake); assay type: cell-based; details: 10 min, 10 μM compound, cultured overnight, 2DG uptake in L6 myotubes, 37° C. 10 minutes, compared with the control group
Experimental: Effect of accelerating the glucose uptake in cultured skeletal muscle cells: Method: Rat skeletal muscle cell strain “L6 cells” in a confluent state was cultured in DME medium containing 2% of fetal calf serum for one week to differentiate into myotubes. The medium was replaced with the DME medium containing a compound synthesized in each of the above Reference Examples. After culturing overnight followed by the thorough washing with HEPES buffer solution, an HEPES buffer solution containing 37 kBq/ml of 10 μM [3H]-2-deoxyglucose (2DG) was added thereto. After the culture at 37° C. for 10 minutes, the radioactivity of 2DG transmigrated into the cells was determined. The effect (%) of each compound on 2DG uptake was determined as compared with that in the control group.

Question: For `CCCCCC(=O)NS(=O)(=O)c1ccccc1NC(=O)c1cccc(OCc2ccc([N+](=O)[O-])cc2)c1` [compound 26, N-[2-[3-(4-Nitrobenzyloxy)benzamido]benzenesulfonyl]hexanamide], which activity at 10 µM is on record?
Answer: 134%

Question: Which activity at 10 µM does the source give for `CCCCCC(=O)NS(=O)(=O)c1ccccc1NC(=O)c1cccc(OCc2ccc(OC)cc2)c1` [compound 30, N-[2-[3-(4-Methoxybenzyloxy)benzamido]benzenesulfonyl]hexanamide] here?
Answer: 131%

Question: Which activity at 10 µM does the source give for `CCCCCC(=O)NS(=O)(=O)c1ccccc1NC(=O)c1cccc(OCC2CCCCC2)c1` [compound 34, N-[2-(3-cyclohexylmethoxybenzamido)benzenesulfonyl]hexanamide] here?
Answer: 145%

Question: For `CCCCCC(=O)NS(=O)(=O)c1ccccc1NC(=O)c1cccc(OCc2ccc(C(F)(F)F)cc2)c1` [compound 41, N-[2-[3-(4-Trifluoromethylbenzyloxy)benzamido]benzenesulfonyl]hexanamide], which activity at 10 µM is on record?
Answer: 230%

Question: For `CC(C)(C)C(=O)NS(=O)(=O)c1ccccc1NC(=O)c1ccc(C#Cc2ccccc2)cc1` [compound 51, N-[2-(4-Phenylethynylbenzamido)benzenesulfonyl]pivalamide], which activity at 10 µM is on record?
Answer: 225%

Question: Which activity at 10 µM does the source give for `CC/C=C/CC(=O)NS(=O)(=O)c1ccccc1NC(=O)c1ccc(C#Cc2ccccc2)cc1` [compound 54, Trans-N-[2-(4-phenylethynylbenzamido)benzenesulfonyl]-3-hexenamide] here?
Answer: 118%

system: not given; test: not given; details: not given

Question: With `O=C(NS(=O)(=O)c1ccccc1NC(=O)c1cccc(OCc2ccccc2)c1)Oc1ccccc1` as the molecule, how does the melting point read?
Answer: 163 to 164 °C

Question: Which melting point does the source give for `CCCCNC(=O)NS(=O)(=O)c1ccccc1NC(=O)c1cccc(OCc2ccccc2)c1` here?
Answer: 177 to 178 °C

Question: For `CCCCCCCCNC(=O)NS(=O)(=O)c1ccccc1NC(=O)c1cccc(OCc2ccccc2)c1`, which melting point is on record?
Answer: 124 to 125 °C

Question: For `O=C(Nc1ccccc1S(=O)(=O)NC(=O)c1cccc(OCc2ccccc2)c1)c1cccc(OCc2ccccc2)c1` [compound 2, N-[2-(3-Benzyloxybenzamido)benzenesulfonyl]-3-benzyloxybenzamide], which melting point is on record?
Answer: 172 to 173 °C

Question: With `O=C(Nc1ccccc1S(=O)(=O)NC(=O)c1ccccc1)c1cccc(OCc2ccccc2)c1` [compound 3, N-[2-(3-Benzyloxybenzamido)benzenesulfonyl]-benzamide] as the molecule, how does the melting point read?
Answer: 201 to 202 °C

Question: Which melting point does the source give for `CC(=O)NS(=O)(=O)c1ccccc1NC(=O)c1cccc(OCc2ccccc2)c1` [compound 4, N-[2-(3-Benzyloxybenzamido)benzenesulfonyl]acetamide] here?
Answer: 195 to 196 °C

Question: Which melting point does the source give for `O=C(Nc1ccccc1S(=O)(=O)NC(=O)c1ccc(C(F)(F)F)cc1)c1cccc(OCc2ccccc2)c1` [compound 5, N-[2-(3-Benzyloxybenzamido)benzenesulfonyl]-4-trifluoromethylbenzamide] here?
Answer: 220 to 221 °C

Question: Which melting point does the source give for `O=C(Nc1ccccc1S(=O)(=O)NC(=O)c1ccc([N+](=O)[O-])cc1)c1cccc(OCc2ccccc2)c1` [compound 6, N-[2-(3-benzyloxybenzamido)benzenesulfonyl]-4-nitrobenzamide] here?
Answer: 233 to 234 °C

Question: For `COc1ccc(C(=O)NS(=O)(=O)c2ccccc2NC(=O)c2cccc(OCc3ccccc3)c2)cc1` [compound 7, N-[2-(3-benzyloxybenzamido)benzenesulfonyl]-4-methoxybenzamide], which melting point is on record?
Answer: 189 to 190 °C

Question: For `CCCCCC(=O)NS(=O)(=O)c1ccccc1NC(=O)c1cccc(OCc2ccccc2)c1` [compound 9, N-[2-(3-Benzyloxybenzamido)benzenesulfonyl]-n-hexanamide], which melting point is on record?
Answer: 133 to 134 °C

Question: For `CCCCCCCCCC(=O)NS(=O)(=O)c1ccccc1NC(=O)c1cccc(OCc2ccccc2)c1` [compound 10, N-[2-(3-Benzyloxybenzamido)benzenesulfonyl]-decanamide], which melting point is on record?
Answer: 85 to 86 °C

Question: For `CC(C)(C)C(=O)NS(=O)(=O)c1ccccc1NC(=O)c1cccc(OCc2ccc(C(C)(C)C)cc2)c1` [compound 14, N-[2-[3-(4-t-butylbenzyloxy)benzamido]benzenesulfonyl]pivalamide], which melting point is on record?
Answer: 193 to 194 °C

Question: Which melting point does the source give for `CC(C)(C)c1ccc(COc2cccc(C(=O)Nc3ccccc3S(=O)(=O)NC(=O)/C=C/c3ccccc3)c2)cc1` [compound 15, N-[2-[3-(4-t-butylbenzyloxy)benzamido]benzenesulfonyl]cinnamamide] here?
Answer: 110 to 111 °C

Question: For `CCCCCCCCCC(=O)NS(=O)(=O)c1ccccc1NC(=O)c1ccc([N+](=O)[O-])c(OCc2ccccc2)c1` [compound 19, N-[2-(3-benzyloxy-4-nitrobenzamido)benzenesulfonyl]decanamide], which melting point is on record?
Answer: 129 to 130 °C

Question: Which melting point does the source give for `CCCCCC(=O)NS(=O)(=O)c1ccccc1NC(=O)c1cccc(OCc2ccc(Cl)cc2)c1` [compound 22, N-[2-[3-(4-Chlorobenzyloxy)benzamido]benzenesulfonyl]hexanamide] here?
Answer: 148 to 149 °C

Question: For `CCCCCCCCCC(=O)NS(=O)(=O)c1ccccc1NC(=O)c1cccc(OCc2ccc(Cl)cc2)c1` [compound 23, N-[2-[3-(4-Chlorobenzyloxy)benzamido]benzenesulfonyl]decanamide], which melting point is on record?
Answer: 159 to 161 °C

Question: Which melting point does the source give for `CC(=O)NS(=O)(=O)c1ccccc1NC(=O)c1cccc(OCc2ccc([N+](=O)[O-])cc2)c1` [compound 25, N-[2-[3-(4-Nitrobenzyloxy)benzamido]benzenesulfonyl]acetamide] here?
Answer: 189 to 192 °C

Question: Which melting point does the source give for `CCCCCC(=O)NS(=O)(=O)c1ccccc1NC(=O)c1cccc(OCc2ccc([N+](=O)[O-])cc2)c1` [compound 26, N-[2-[3-(4-Nitrobenzyloxy)benzamido]benzenesulfonyl]hexanamide] here?
Answer: 138 to 141 °C

Question: Which melting point does the source give for `CCCCCCCCCC(=O)NS(=O)(=O)c1ccccc1NC(=O)c1cccc(OCc2ccc([N+](=O)[O-])cc2)c1` [compound 27, N-[2-[3-(4-nitrobenzyloxy)benzamido]benzenesulfonyl]decanamide] here?
Answer: 145 to 148 °C

Question: For `COc1ccc(COc2cccc(C(=O)Nc3ccccc3S(=O)(=O)NC(C)=O)c2)cc1` [compound 29, N-[2-[3-(4-Methoxybenzyloxy)benzamido]benzenesulfonyl]acetamide], which melting point is on record?
Answer: 114 to 117 °C

Question: Which melting point does the source give for `CCCCCC(=O)NS(=O)(=O)c1ccccc1NC(=O)c1cccc(OCc2ccc(OC)cc2)c1` [compound 30, N-[2-[3-(4-Methoxybenzyloxy)benzamido]benzenesulfonyl]hexanamide] here?
Answer: 154 to 157 °C

Question: Which melting point does the source give for `CCCCCCCCCC(=O)NS(=O)(=O)c1ccccc1NC(=O)c1cccc(OCc2ccc(OC)cc2)c1` [compound 31, N-[2-[3-(4-Methoxybenzyloxy)benzamido]benzenesulfonyl]decanamide] here?
Answer: 148 to 149 °C

Question: Which melting point does the source give for `CC(=O)NS(=O)(=O)c1ccccc1NC(=O)c1cccc(OCC2CCCCC2)c1` [compound 33, N-[2-(3-Cyclohexylmethoxybenzamido)benzenesulfonyl]acetamide] here?
Answer: 164 to 167 °C

Question: With `CCCCCC(=O)NS(=O)(=O)c1ccccc1NC(=O)c1cccc(OCC2CCCCC2)c1` [compound 34, N-[2-(3-cyclohexylmethoxybenzamido)benzenesulfonyl]hexanamide] as the molecule, how does the melting point read?
Answer: 112 to 113 °C

Question: Which melting point does the source give for `CCCCCCCCCC(=O)NS(=O)(=O)c1ccccc1NC(=O)c1cccc(OCC2CCCCC2)c1` [compound 35, N-[2-(3-Cyclohexylmethoxybenzamido)benzenesulfonyl]decanamide] here?
Answer: 124 to 127 °C

Question: Which melting point does the source give for `CC(=O)NS(=O)(=O)c1ccccc1NC(=O)c1cccc(OCc2ccc(C(C)(C)C)cc2)c1` [compound 36, N-[2-[3-(4-t-Butylbenzyloxy)benzamido]benzenesulfonyl]acetamide] here?
Answer: 190 to 191 °C

Question: Which melting point does the source give for `CCCCCC(=O)NS(=O)(=O)c1ccccc1NC(=O)c1cccc(OCc2ccc(C(C)(C)C)cc2)c1` [compound 37, N-[2-[3-(4-t-Butylbenzyloxy)benzamido]benzenesulfonyl]hexanamide] here?
Answer: 163 to 164 °C

Question: Which melting point does the source give for `CCCCCCCCCC(=O)NS(=O)(=O)c1ccccc1NC(=O)c1cccc(OCc2ccc(C(C)(C)C)cc2)c1` [compound 38, N-[2-[3-(4-t-Butylbenzyloxy)benzamido]benzenesulfonyl]decanamide] here?
Answer: 132 to 133 °C

Question: Which melting point does the source give for `CCCCCC(=O)NS(=O)(=O)c1ccccc1NC(=O)c1cccc(OCc2ccc(C(F)(F)F)cc2)c1` [compound 41, N-[2-[3-(4-Trifluoromethylbenzyloxy)benzamido]benzenesulfonyl]hexanamide] here?
Answer: 142 to 143 °C

Question: For `CCCCCCCCCC(=O)NS(=O)(=O)c1ccccc1NC(=O)c1cccc(OCc2ccc(C(F)(F)F)cc2)c1` [compound 42, N-[2-[3-(4-Trifluoromethylbenzyloxy)benzamido]benzenesulfonyl]decanamide], which melting point is on record?
Answer: 164 °C

Question: Which melting point does the source give for `CCCCCCCOc1cccc(C(=O)Nc2ccccc2S(=O)(=O)NC(C)=O)c1` [compound 44, N-[2-(3-Heptyloxybenzamido)benzenesulfonyl]acetamide] here?
Answer: 194 to 195 °C

Question: For `CCCCCCCOc1cccc(C(=O)Nc2ccccc2S(=O)(=O)NC(=O)CCCCC)c1` [compound 45, N-[2-(3-Heptyloxybenzamido)benzenesulfonyl]hexanamide], which melting point is on record?
Answer: 200 to 201 °C

Question: Which melting point does the source give for `CC(=O)NS(=O)(=O)c1ccccc1NC(=O)c1ccc(C#Cc2ccccc2)cc1` [compound 48, N-[2-(4-Phenylethynylbenzamido)benzenesulfonyl]acetamide] here?
Answer: 214 to 215 °C

Question: For `CCCCCCCCCC(=O)NS(=O)(=O)c1ccccc1NC(=O)c1ccc(C#Cc2ccccc2)cc1` [compound 50, N-[2-(4-Phenylethynylbenzamido)benzenesulfonyl]decanamide], which melting point is on record?
Answer: 155 to 156 °C

Question: With `CC(C)(C)C(=O)NS(=O)(=O)c1ccccc1NC(=O)c1ccc(C#Cc2ccccc2)cc1` [compound 51, N-[2-(4-Phenylethynylbenzamido)benzenesulfonyl]pivalamide] as the molecule, how does the melting point read?
Answer: 236 to 237 °C

Question: With `CC(C)=CC(=O)NS(=O)(=O)c1ccccc1NC(=O)c1ccc(C#Cc2ccccc2)cc1` [compound 52, 3-Methyl-N-[2-(4-phenylethynylbenzamido)benzenesulfonyl]-2-butenamide] as the molecule, how does the melting point read?
Answer: 187 to 188 °C

Question: For `C/C=C/C=C/C(=O)NS(=O)(=O)c1ccccc1NC(=O)c1ccc(C#Cc2ccccc2)cc1` [compound 53, Trans-N-[2-(4-phenylethynylbenzamido)benzenesulfonyl]-2,4-hexadienamide], which melting point is on record?
Answer: 208 to 209 °C
